The source of these data is patent publication US20230250253A1, “PLASTIC POLYMER BIOCONVERSION PROCESS” (GEORGIA STATE UNIVERSITY RESEARCH FOUNDATION, INC., priority 2020, published 2023).

Experiment [1] relates to Yarrowia lipolytica ATCC strain 46482. As to the kind of experiment: Y. lipolytica growth (biomass) in OP5 / PCOP5 medium, fermentation optimization. The class given is cell-based. The conditions noted are these: added to OP5 medium at 0.75, 1.5 and 3 g L^−1. As for the experimental part:
Polypropylene Growth Medium Preparation: OP5 medium is prepared as follows. 125-ml flat-bottomed borosilicate flasks were used to pyrolyze either virgin PP pellets or sheared postconsumer PP in 3 g batches at 540° C. for 195 minutes. The pyrolysis oil (at 15 g L^−1) was combined with: 5.4 g L^−1 Tween-80@, 5 g L^−1 yeast nitrogen base, 2.5 g L^−1 KH2PO4, 2.5 g L^−1 yeast extract, and 1.25 g L^−1 MgSO4 7H2O. The mixture was emulsified with a hand-held food-grade homogenizer. To compensate for the lack of oleic acid as an emulsifier, the homogenization time of OP5 medium was increased from 90 seconds (mixing time for OP4 medium) to 3 minutes. The resulting homogenized medium was autoclaved for 30 min at 121° C. and 15 psi.
Cultures and Fermentation Conditions: Yarrowia lipolytica ATCC strain 46482 was the strain used in this work. Overnight cultures were prepared from 1 ml 60% glycerol stocks of Y. lipolytica stored at −80° C. […] 1 ml aliquots of overnight cultures were withdrawn and used to measure yeast growth via absorbance. […]
Growth Measurements: Y. lipolytica growth measurements were taken spectrophotometrically and gravimetric measurements. Y. lipolytica culture aliquots of 1 ml were withdrawn, and growth was measured via optical density at 600 nm using an Eppendorf 6131 Biophotometer (Eppendorf, USA). […]

For experiment [2] the test system is unchanged. As to the kind of experiment: Intracellular lipid quantification and GC/MS fatty acid profile, OP5 / PCOP5 medium. The class given is cell-based. The conditions noted are these: added to OP5 medium at 0.75, 1.5 and 3 g L^−1. On the procedure:
Fermentation Optimization: For fermentation optimization experiments, pH, inoculum density, osmolarity, or carbon-nitrogen ratio were altered. For pH experiments, OP5 medium pH was adjusted to 4.0, 5.0, or 6.0 using 2.0 M H2SO4 or 4.0 M NaOH. A Corning 320 pH meter (Corning, USA) was used to measure pH. For starting inoculum density experiments, OP5 medium was inoculated at an inoculum density of either 1.0, 3.0, or 6.0. Aliquots of 1 ml were retrieved from Y. lipolytica overnight culture and inoculum density was measured via absorbance at 600 nm. Based on absorbance readings, a volume of cells corresponding to the desired inoculum density was retrieved from the overnight culture and centrifuged at 4,000 rpm. Pelleted cells were washed twice with 50 mM PBS solution and used to inoculate OP5 medium. […] After the selected parameters were altered, shake flask fermentations were carried out for 120 hours, after which cells were processed and biomass and lipid product formation were analyzed as described below. […]
Component media experiments were carried out in 500 ml Erlenmeyer flasks containing 50 ml medium, and Y. lipolytica was inoculated at an inoculum density of 1.0. […] The supernatant was decanted and cells washed twice with 50 mM PBS before being lyophilized, weighed as described above, and lipids extracted and quantified as described in the following section. […]

`[Cl-].[Na+]` [NaCl, sodium chloride]: the “Effect on Y. lipolytica cell growth” value in experiment [1] is “inhibited”. Moreover, in experiment [2], the “Effect on fatty acid production or intracellular fatty acid content” value is “no significant impact”.
